Measured values taken from ChEMBL document CHEMBL4152318, “Halogenated quinolines bearing polar functionality at the 2-position: Identification of new antibacterial agents with enhanced activity against Staphylococcus epidermidis” (Eur J Med Chem, 2018).
Converted amounts (≈) assume the structure as drawn.

Columns and labels:
[1] = tested on: HeLa; test: Cytotoxicity against human HeLa cells after 24 hrs by LDH release assay; assay type: cell-based
[2] = tested on: Enterococcus faecium; test: Antibacterial activity against vancomycin-resistant Enterococcus faecium ATCC 700221 after 16 to 18 hrs by broth microdilution method; assay type: functional
[3] = tested on: Staphylococcus epidermidis; test: Antibacterial activity against methicillin-resistant Staphylococcus epidermidis ATCC 35984 after 16 to 18 hrs by broth microdilution method; assay type: functional
[4] = tested on: Staphylococcus aureus; test: Antibacterial activity against methicillin-resistant Staphylococcus aureus BAA-1707 after 16 to 18 hrs by broth microdilution method; assay type: functional
[5] = Selectivity index, ratio of IC50 for cytotoxicity against human HeLa cells to MIC for antibacterial activity against methicillin-resistant Staphylococcus epidermidis ATCC 35984; assay type: toxicity, cell-based; conditions: read-out: Selectivity Index
[6] = tested on: Enterococcus faecium; test: Antibiofilm activity against vancomycin-resistant Enterococcus faecium ATCC 700221 after 24 hrs by CBD assay; assay type: functional
[7] = tested on: Staphylococcus aureus; test: Antibiofilm activity against methicillin-resistant Staphylococcus aureus BAA-1707 after 24 hrs by CBD assay; assay type: functional
[8] = tested on: Staphylococcus epidermidis; test: Antibiofilm activity against methicillin-resistant Staphylococcus epidermidis ATCC 35984 after 24 hrs by CBD assay; assay type: functional
[9] = tested on: Staphylococcus aureus; test: Bactericidal activity against methicillin-resistant Staphylococcus aureus BAA-1707 planktonic cells after 24 hrs by CBD assay; assay type: functional; conditions: BAA-1707, 24 h
[10] = tested on: Enterococcus faecium; test: Bactericidal activity against vancomycin-resistant Enterococcus faecium ATCC 700221 planktonic cells after 24 hrs by CBD assay; assay type: functional; conditions: ATCC 700221, 24 h
[11] = tested on: Staphylococcus epidermidis; test: Bactericidal activity against methicillin-resistant Staphylococcus epidermidis ATCC 35984 planktonic cells after 24 hrs by CBD assay; assay type: functional; conditions: ATCC 35984, 24 h
[12] = Hemolytic activity against human RBC at 200 uM after 1 hr relative to control; assay type: ADME, cell-based, Erythrocyte; conditions: red blood cells (erythrocytes), read-out: Activity
[13] = tested on: Staphylococcus aureus; test: Potency index, ratio of TPEN MIC to compound MIC for antibacterial activity against methicillin-resistant Staphylococcus aureus BAA-1707; assay type: functional
[14] = Selectivity ratio of MIC for methicillin-resistant Staphylococcus aureus BAA-1707 to MIC for methicillin-resistant Staphylococcus epidermidis ATCC 35984; assay type: functional
[15] = tested on: Staphylococcus epidermidis; test: Potency index, ratio of TPEN MIC to compound MIC for antibacterial activity against methicillin-resistant Staphylococcus epidermidis ATCC 35984; assay type: functional
[16] = Selectivity ratio of MIC for vancomycin-resistant Enterococcus faecium ATCC 700221 to MIC for methicillin-resistant Staphylococcus epidermidis ATCC 35984; assay type: functional

| Structure (SMILES) | IC50 [1] [µM] | MIC [2] [µM] | MIC [3] [µM] | MIC [4] [µM] | selectivity ratio [5] | MBEC [6] [µM] | MBEC [7] [µM] | MBEC [8] [µM] | MBC [9] [µM] | MBC [10] [µM] | MBC [11] [µM] | hemolysis at 1 h, 200 µM [12] [%] | Ratio [13] | Selectivity ratio [14] | Ratio [15] | Selectivity ratio [16] |
| --- | --- | --- | --- | --- | --- | --- | --- | --- | --- | --- | --- | --- | --- | --- | --- | --- |
| Oc1c(Br)cc(Br)c2ccc(CNc3ccccc3)nc12 | 100 | 0.78 (≈ 0.318 µg/mL) | 0.15 (≈ 0.0612 µg/mL) | 0.39 (≈ 0.159 µg/mL) | 667 |  |  |  |  |  |  |  |  |  |  |  |
| OCc1cn(Cc2ccc3c(Br)cc(Br)c(O)c3n2)nn1 |  | > 100 | > 100 | > 100 |  |  |  |  |  |  |  |  |  |  |  |  |
| CC(C)(C)OC(=O)N1CCN(Cc2ccc3c(Br)cc(Br)c(O)c3n2)CC1 | > 100 | 0.59 (≈ 0.296 µg/mL) | 0.3 (≈ 0.15 µg/mL) | 0.78 (≈ 0.391 µg/mL) | > 333 | 1.56 | 18.8 | 6.25 | 18.8 (≈ 9.42 µg/mL) | 4.69 (≈ 2.35 µg/mL) | 37.5 (≈ 18.8 µg/mL) | 2.8 |  |  |  |  |
| CCCCOCc1ccc2c(Br)cc(Br)c(O)c2n1 | > 50 | 12.5 (≈ 4.86 µg/mL) | 0.3 (≈ 0.117 µg/mL) | 2.35 (≈ 0.914 µg/mL) | > 167 |  |  | 75 |  |  | 37.5 (≈ 14.6 µg/mL) | 2.8 | 16 - 42 | > 2 | 16 - 42 | > 2 |
| CC(=O)NC[C@H]1CN(c2ccc(N3CCOCC3)c(F)c2)C(=O)O1 [LINEZOLID] |  | 3.13 (≈ 1.06 µg/mL) | 3.13 (≈ 1.06 µg/mL) | 12.5 (≈ 4.22 µg/mL) |  |  |  |  |  |  |  |  |  |  |  |  |
| CC(C)(C)OC(=O)NCC(=O)N1CCN(Cc2ccc3c(Br)cc(Br)c(O)c3n2)CC1 |  | 12.5 (≈ 6.98 µg/mL) | 9.38 (≈ 5.24 µg/mL) | 25 (≈ 14 µg/mL) |  |  |  |  |  |  |  |  |  |  |  |  |
| C#CCNCc1ccc2c(Br)cc(Br)c(O)c2n1 | > 25 | 1.56 (≈ 0.577 µg/mL) | 0.3 (≈ 0.111 µg/mL) | 3.13 (≈ 1.16 µg/mL) | > 83 |  |  |  |  |  |  |  | 16 - 42 | > 2 | 16 - 42 | > 2 |
| COCCOCCOCCOCc1ccc2c(Br)cc(Br)c(O)c2n1 | 100 |  | 2.35 (≈ 1.13 µg/mL) | 2.35 (≈ 1.13 µg/mL) |  |  |  |  |  |  |  |  |  |  |  |  |
| C[C@H](NC(=O)OC(C)(C)C)C(=O)N1CCN(Cc2ccc3c(Br)cc(Br)c(O)c3n2)CC1 |  | 6.25 (≈ 3.58 µg/mL) | 3.13 (≈ 1.79 µg/mL) | 3.13 (≈ 1.79 µg/mL) |  |  |  |  |  |  |  |  |  |  |  |  |
| COCCOCCOCc1ccc2c(Br)cc(Br)c(O)c2n1 | > 100 | 3.13 (≈ 1.36 µg/mL) | 0.78 (≈ 0.339 µg/mL) | 2.35 (≈ 1.02 µg/mL) | > 128 | 2.35 | 200 | 75 | 50 (≈ 21.8 µg/mL) | 6.25 (≈ 2.72 µg/mL) | 25 (≈ 10.9 µg/mL) | 4.1 | 16 - 42 | > 2 | 16 - 42 | > 2 |
| OCc1ccc2c(Br)cc(Br)c(O)c2n1 | > 100 | 25 (≈ 8.32 µg/mL) | 37.5 (≈ 12.5 µg/mL) | 100 (≈ 33.3 µg/mL) | > 2.7 |  |  |  |  |  |  |  |  |  |  |  |
| Oc1c(Br)cc(Br)c2ccc(CN3CCNCC3)nc12 |  | 50 (≈ 20.1 µg/mL) | 12.5 (≈ 5.01 µg/mL) | 25 (≈ 10 µg/mL) |  |  |  |  |  |  |  |  |  |  |  |  |
| Oc1c(Br)cc(Br)c2ccc(CN3CCOCC3)nc12 | > 100 | 3.13 (≈ 1.26 µg/mL) | 0.59 (≈ 0.237 µg/mL) | 1.56 (≈ 0.627 µg/mL) | > 169 | 1.17 | >200 | 2.35 | 25 (≈ 10.1 µg/mL) | 1.56 (≈ 0.627 µg/mL) | 4.69 (≈ 1.89 µg/mL) | 2.6 | 16 - 42 | > 2 | 16 - 42 | > 2 |
| CN[C@H](CC(C)C)C(=O)N[C@H]1C(=O)N[C@@H](CC(N)=O)C(=O)N[C@H]2C(=O)N[C@H]3C(=O)N[C@H](C(=O)N[C@H](C(=O)O)c4cc(O)cc(O)c4-c4cc3ccc4O)[C@H](O)c3ccc(c(Cl)c3)Oc3cc2cc(c3O[C@@H]2O[C@H](CO)[C@@H](O)[C@H](O)[C@H]2O[C@H]2C[C@](C)(N)[C@H](O)[C@H](C)O2)Oc2ccc(cc2Cl)[C@H]1O [VANCOMYCIN] |  | > 100 |  |  |  | 150 | >2000 | >2000 | 3.9 (≈ 5.65 µg/mL) | > 200 | 3 (≈ 4.35 µg/mL) | ≤ 1 |  |  |  |  |
| Cc1ccc2c(Br)cc(Br)c(O)c2n1 [BROQUINALDOL] | > 100 | 3.13 (≈ 0.992 µg/mL) | 1.17 (≈ 0.371 µg/mL) |  |  |  |  |  |  |  |  |  |  |  |  |  |
| NCCOCCOCCNCc1ccc2c(Br)cc(Br)c(O)c2n1 |  | 50 (≈ 23.2 µg/mL) | 25 (≈ 11.6 µg/mL) | 37.5 (≈ 17.4 µg/mL) |  |  |  |  |  |  |  |  |  |  |  |  |
| COCCOCc1ccc2c(Br)cc(Br)c(O)c2n1 | > 100 |  | 1.56 (≈ 0.61 µg/mL) |  |  |  |  |  |  |  |  |  |  |  |  |  |
| CCCCCCCCCC(=O)N[C@@H](Cc1c[nH]c2ccccc12)C(=O)N[C@@H](CC(N)=O)C(=O)N[C@@H](CC(=O)O)C(=O)N[C@@H]1C(=O)NCC(=O)N[C@@H](CCCN)C(=O)N[C@@H](CC(=O)O)C(=O)N[C@H](C)C(=O)N[C@@H](CC(=O)O)C(=O)NCC(=O)N[C@H](CO)C(=O)N[C@@H]([C@H](C)CC(=O)O)C(=O)N[C@@H](CC(=O)c2ccccc2N)C(=O)O[C@@H]1C [DAPTOMYCIN] |  | 3.13 (≈ 5.07 µg/mL) | 12.5 (≈ 20.3 µg/mL) | 3.13 (≈ 5.07 µg/mL) |  |  |  |  |  |  |  |  |  |  |  |  |
| CCCc1ccc2c(Br)cc(Br)c(O)c2n1 | > 50 | 0.78 (≈ 0.269 µg/mL) | 0.59 (≈ 0.204 µg/mL) | 0.39 (≈ 0.135 µg/mL) | > 85 |  |  |  |  |  |  |  |  |  |  |  |
| CCCNCc1ccc2c(Br)cc(Br)c(O)c2n1 | > 100 | 3.13 (≈ 1.17 µg/mL) |  | 2.35 (≈ 0.879 µg/mL) |  |  |  |  |  |  |  |  |  |  |  |  |
| c1ccc(CN(CCN(Cc2ccccn2)Cc2ccccn2)Cc2ccccn2)nc1 |  |  | 12.5 (≈ 5.31 µg/mL) | 46.9 (≈ 19.9 µg/mL) |  |  | >2000 | >2000 | 375 (≈ 159 µg/mL) |  | 250 (≈ 106 µg/mL) | ≤ 1 |  |  |  |  |
| CC(C)(C)OC(=O)NCCOCCOCCNCc1ccc2c(Br)cc(Br)c(O)c2n1 |  | 6.25 (≈ 3.52 µg/mL) | 3.13 (≈ 1.76 µg/mL) | 12.5 (≈ 7.04 µg/mL) |  |  |  |  |  |  |  |  |  |  |  |  |
